{"source": "patent US20240390293A1", "about": "“DERIVATIVES OF THE PROTECTIN 10S,17S-DIHDA (PDX) AND USE THEREOF AS ANTIVIRAL, ANTI-INFLAMMATORY, AND ANTI-DIABETIC AGENTS” (priority 2021, published 2024)", "key": {"[1]": {"tested_on": "influenza A/Puerto Rico/8/34 (H1N1)", "format": "cell-based", "details": "A549 cells, 24 hours"}, "[2]": {"tested_on": "interleukin-6 (IL-6) release", "details": "skeletal muscle cells; PDX at submicromolar concentrations; cited from earlier work"}, "SARS-CoV-2 [3]": {"tested_on": "SARS-CoV-2", "test": "Plaque Reduction Assay (PRA) of SARS-CoV-2 replication on VERO E6 cells", "format": "cell-based"}, "iNOS": {"tested_on": "iNOS", "test": "LPS-induced iNOS activity (nitrite production, Griess method) in J774 macrophages", "format": "cell-based, mice", "details": "for IC50: Mus musculus; for nitrite production in LPS-induced J774 mice macrophages: LPS 2.5 ng/ml, 18 h, dose-dependent", "method": "J774A.1 macrophages are grown in DMEM, supplemented with 10% Bovine Growth Serum (BGS) and 1% penicillin-streptomycin (PS). The J774A.1 macrophages are subsequently stimulated with LPS 2.5 ng/ml in DMEM supplemented with 10% BGS and 1% PS for 16 h-18 h. […] After incubation, the level of inflammation is evaluated by measuring the nitrite content in the medium by using the Griess method and normalized by protein concentration."}, "SARS-CoV-2 [4]": {"tested_on": "SARS-CoV-2", "test": "SARS-CoV-2 infected hamsters: viral titers and weight variation", "format": "in vivo, Golden Syrian hamsters", "method": "Animal Studies. 5-6 Week-old Golden Syrian hamsters were infected with 4.5 log PFU of original SARS-CoV-2 strain. On days 1, 2 and 3, or 1 to 5 post-infection, the animals were treated intraperitoneally with either Remdesivir (15 mg/kg), analog RM-598-48 (50 mg/kg), Remdesivir (15 mg/kg)+analog RM-598-48 (50 mg/kg), analog RM-598-44 (50 mg/kg), or with vehicle only (FIG. 28). The hamsters were monitored daily over a period of 14 days for clinical symptoms and weight loss. On day 4 post-infection, nasal turbinates and lungs were harvested to assess viral replication. All animal studies were approved by the Animal Protection Committee of the Centre Hospitalier Universitaire de Québec according to the Canadian Council on Animal Care guidelines.\nViral titers. Viral titers were determined in cell culture to characterize the presence of live virus. Ten-fold dilutions of nasal turbinates and lung homogenates were performed in infection medium. After one week of infection, titers were determined and reported in TCID50 per gram of organ."}, "[5]": {"details": "LPS-stimulated J774 macrophages, nitrite by Griess method, read-out: Anti-inflammatory Activity on iNOS IC50"}, "[6]": {"details": "Severe acute respiratory syndrome coronavirus 2, Vero C1008, VERO E6 cells, plaque reduction assay, read-out: SARS-COV-2 Inhibition IC50"}, "[7]": {"details": "50 mg/kg IP from day 1 until day 5 post-infection"}, "[8]": {"details": "Severe acute respiratory syndrome coronavirus 2, Vero C1008, read-out: SARS-COV-2 Inhibition (%)"}}, "note": "Like-named read-outs stand apart in the source and are kept apart here.", "data": [{"smiles": "O=C1c2c(O)c(=O)ccn2N([C@@H]2c3ccccc3SCc3c2ccc(F)c3F)[C@@H]2COCCN12", "note": "[BXA, Baloxavir acid]", "values": [{"measurement": "decrease in the viral charge", "setting": "[1]; 5 μM", "result": 88, "unit": "%"}]}, {"smiles": "CC/C=C\\C[C@H](O)\\C=C/C=C/C=C/[C@H](O)C/C=C\\C/C=C\\CCC(=O)O", "note": "[PD1, protectin D1]", "values": [{"measurement": "release of interleukin-6 (IL-6)", "setting": "[2]", "result": "ineffective"}, {"measurement": "decrease in the viral charge", "setting": "[1]; 50 μM", "result": 10, "unit": "%"}]}, {"smiles": "CC/C=C\\C[C@H](O)/C=C/C=C\\C=C\\[C@@H](O)C/C=C\\C/C=C\\CCC(=O)O", "note": "[PDX, 10S, 17S-diHDA, reference compound]", "values": [{"measurement": "release of interleukin-6 (IL-6)", "setting": "[2]", "result": "induce the release"}, {"measurement": "inhibition at 5 µM", "setting": "SARS-CoV-2 [3]; Severe acute respiratory syndrome coronavirus 2, Vero C1008, 5 μM, VERO E6 cells, plaque reduction assay, read-out: SARS-COV-2 Inhibition (%)", "result": 0, "unit": "%"}, {"measurement": "inhibition at 50 µM", "setting": "SARS-CoV-2 [3]; Severe acute respiratory syndrome coronavirus 2, Vero C1008, 50 μM, VERO E6 cells, plaque reduction assay, read-out: SARS-COV-2 Inhibition (%)", "result": 18, "unit": "%"}, {"measurement": "IC50", "setting": "iNOS; [5]", "result": 96, "unit": "µM"}]}, {"smiles": "CC/C=C\\C[C@H](O)/C=C/C=C\\C=C\\[C@@H](O)CCOc1ccc(C)cc1", "note": "[PDX-1]", "values": [{"measurement": "nitrite production in LPS-induced J774 mice macrophages", "setting": "iNOS", "result": "reduced nitrite production"}, {"measurement": "IC50", "setting": "iNOS; [5]", "result": 11, "unit": "µM"}]}, {"smiles": "CC/C=C\\C[C@H](O)/C=C/C=C\\C=C\\[C@@H](O)CCOc1ccc(CC(=O)OC)cc1", "note": "[PDX-2]", "values": [{"measurement": "IC50", "setting": "SARS-CoV-2 [3]; [6]", "result": 33, "unit": "µM"}, {"measurement": "nitrite production in LPS-induced J774 mice macrophages", "setting": "iNOS", "result": "reduced nitrite production"}, {"measurement": "IC50", "setting": "iNOS; [5]", "result": 64, "unit": "µM"}, {"measurement": "weight loss (weight variation, % of initial weight)", "setting": "SARS-CoV-2 [4]; [7]", "result": "significantly limit weight loss"}, {"measurement": "weight loss (weight variation, % of initial weight)", "setting": "SARS-CoV-2 [4]; 50 mg/kg IP on days 1, 2 and 3 post-infection, significant at days 3, 9, 11, 12 and 14", "result": "significantly limit weight loss"}, {"measurement": "viral loads in nasal turbinates", "setting": "SARS-CoV-2 [4]; 50 mg/kg IP on days 1, 2 and 3 post-infection, titers on day 4, vs untreated hamsters", "result": "significantly different from the untreated hamsters"}]}, {"smiles": "CC/C=C\\C[C@H](O)/C=C/C=C\\C=C\\[C@@H](O)CCNCCCCCC", "note": "[PDX-6]", "values": [{"measurement": "IC50", "setting": "SARS-CoV-2 [3]; [6]", "result": 29, "unit": "µM"}, {"measurement": "nitrite production in LPS-induced J774 mice macrophages", "setting": "iNOS", "result": "reduced nitrite production"}, {"measurement": "IC50", "setting": "iNOS; [5]", "result": 50, "unit": "µM"}]}, {"smiles": "CC/C=C\\C[C@H](O)/C=C/C=C\\C=C\\[C@@H](O)CCN1CCCCC1", "note": "[PDX-7]", "values": [{"measurement": "nitrite production in LPS-induced J774 mice macrophages", "setting": "iNOS", "result": "reduced nitrite production"}]}, {"smiles": "CC/C=C\\C[C@H](O)/C=C/C=C/C=C/[C@@H](O)CCN1CCCCC1", "note": "[PDX-10]", "values": [{"measurement": "IC50", "setting": "SARS-CoV-2 [3]; [6]", "result": 56, "unit": "µM"}, {"measurement": "nitrite production in LPS-induced J774 mice macrophages", "setting": "iNOS", "result": "reduced nitrite production"}, {"measurement": "IC50", "setting": "iNOS; [5]", "result": 32, "unit": "µM"}]}, {"smiles": "CC/C=C\\C[C@H](O)/C=C/C=C\\C=C\\[C@@H](O)CCOc1ccc(C(=O)OC)cc1", "note": "[PDX-16]", "values": [{"measurement": "nitrite production in LPS-induced J774 mice macrophages", "setting": "iNOS", "result": "reduced nitrite production"}]}, {"smiles": "CC/C=C\\C[C@H](O)/C=C/C=C\\C=C\\[C@@H](O)CCOc1ccncc1", "note": "[PDX-17]", "values": [{"measurement": "nitrite production in LPS-induced J774 mice macrophages", "setting": "iNOS", "result": "reduced nitrite production"}]}, {"smiles": "CC/C=C\\C[C@H](O)/C=C/C=C\\C=C\\[C@@H](O)CCOc1ccc2ccc(=O)oc2c1", "note": "[PDX-18]", "values": [{"measurement": "nitrite production in LPS-induced J774 mice macrophages", "setting": "iNOS", "result": "reduced nitrite production"}]}, {"smiles": "CC/C=C\\C[C@H](O)/C=C/C=C\\C=C\\[C@@H](O)CCOc1ccc(C(=O)O)cc1", "note": "[PDX-19]", "values": [{"measurement": "nitrite production in LPS-induced J774 mice macrophages", "setting": "iNOS", "result": "reduced nitrite production"}]}, {"smiles": "CC/C=C\\C[C@H](O)/C=C/C=C\\C=C\\[C@@H](O)CCNCCC", "note": "[PDX-20]", "values": [{"measurement": "nitrite production in LPS-induced J774 mice macrophages", "setting": "iNOS", "result": "reduced nitrite production"}]}, {"smiles": "CC/C=C\\C[C@H](O)/C=C/C=C\\C=C\\[C@@H](O)CCOc1cccc(CC(=O)O)c1", "note": "[PDX-21]", "values": [{"measurement": "nitrite production in LPS-induced J774 mice macrophages", "setting": "iNOS", "result": "reduced nitrite production"}]}, {"smiles": "CC/C=C\\C[C@H](O)/C=C/C=C\\C=C\\[C@@H](O)CCOc1cccc(CC(=O)OC)c1", "note": "[PDX-22]", "values": [{"measurement": "nitrite production in LPS-induced J774 mice macrophages", "setting": "iNOS", "result": "reduced nitrite production"}]}, {"smiles": "CC/C=C\\C[C@H](O)/C=C/C=C\\C=C\\[C@@H](O)CCOc1ccc(CC(=O)NC)cc1", "note": "[PDX-23]", "values": [{"measurement": "nitrite production in LPS-induced J774 mice macrophages", "setting": "iNOS", "result": "reduced nitrite production"}]}, {"smiles": "CC/C=C\\C[C@H](O)/C=C/C=C\\C=C\\[C@@H](O)CCOc1ccc(CC(N)=O)cc1", "note": "[PDX-24]", "values": [{"measurement": "nitrite production in LPS-induced J774 mice macrophages", "setting": "iNOS", "result": "reduced nitrite production"}, {"measurement": "decrease in the viral charge", "setting": "[1]; 50 μM", "result": 39, "unit": "%"}]}, {"smiles": "CC/C=C\\C[C@H](O)C#C/C=C\\C#C[C@@H](O)CCO", "note": "[PDX-Al-1]", "values": [{"measurement": "inhibition at 5 µM", "setting": "SARS-CoV-2 [3]; [8]", "result": 40, "unit": "%"}, {"measurement": "inhibition at 50 µM", "setting": "SARS-CoV-2 [3]; [8]", "result": 30, "unit": "%"}, {"measurement": "nitrite production in LPS-induced J774 mice macrophages", "setting": "iNOS", "result": "reduced nitrite production"}, {"measurement": "IC50", "setting": "iNOS; J774, read-out: Anti-inflammatory Activity on iNOS IC50", "result": 18, "unit": "µM"}, {"measurement": "weight loss (weight variation, % of initial weight)", "setting": "SARS-CoV-2 [4]; [7]", "result": "tendency to limit weight loss, but not in a significant manner"}]}, {"smiles": "O=c1c(O)c(-c2ccc(O)c(O)c2)oc2cc(O)cc(O)c12", "note": "[Quercetin, reference compound]", "values": [{"measurement": "nitrite production in LPS-induced J774 mice macrophages", "setting": "iNOS", "result": "reduced nitrite production"}]}, {"smiles": "CCC(CC)COC(=O)[C@H](C)N[P@](=O)(OC[C@H]1O[C@@](C#N)(c2ccc3c(N)ncnn23)[C@H](O)[C@@H]1O)Oc1ccccc1", "note": "[Remdesivir, reference compound]", "values": [{"measurement": "IC50", "setting": "SARS-CoV-2 [3]; Severe acute respiratory syndrome coronavirus 2, Vero C1008, read-out: SARS-COV-2 Inhibition IC50", "result": 3.9, "unit": "µM"}]}]}
